The target of the assay is wt human LRRK2, catalytic site (Homo sapiens (Human), UniProt Q5S007). Briefly: TR-FRET LanthaScreen Tb Kinase Activity Assay (LRRK2 kinase inhibition). The note with it: 2 nM wt human LRRK2, 400 nM fluorescein-ERM (LRRKtide) peptide, 38 μM ATP, 120 minutes at room temperature. It is filed as biochemical. The procedure, abridged:
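LanthaScreen TR-FRET with 2 nM wt human LRRK2 catalytic site, 400 nM fluorescein-ERM (LRRKtide) peptide and 38 µM ATP in Kinase Buffer A; 120 min at room temperature. Phosphorylation detected with EDTA and Tb-anti-pLRRKtide after 60 min; IC50 from emission ratios.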
In general terms: Time-resolved FRET reads energy transfer from a long-lived donor to a nearby acceptor.
wt human LRRK2, catalytic site, sequence (Q5S007 1879-2138): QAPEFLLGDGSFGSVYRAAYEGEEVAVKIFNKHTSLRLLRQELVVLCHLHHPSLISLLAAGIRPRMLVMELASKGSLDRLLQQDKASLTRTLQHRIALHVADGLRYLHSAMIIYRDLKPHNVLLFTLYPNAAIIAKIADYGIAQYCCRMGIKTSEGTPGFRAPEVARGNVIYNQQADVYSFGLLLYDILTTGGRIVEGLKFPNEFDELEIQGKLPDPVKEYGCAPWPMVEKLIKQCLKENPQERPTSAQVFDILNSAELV
Consider `CC(C)n1ncc2c(Nc3ncc(C(F)(F)F)c(NC4CC4)n3)cccc21` [Example 169, N4-cyclopropyl-N2-(1-isopropyl-1H-indazol-4-yl)-5-(trifluoromethyl)pyrimidine-2,4-diamine], for which the IC50 was under 0.05 µM.
As to `N#CCn1ncc2c(Nc3ncc(C(F)(F)F)c(NCC4CC4)n3)cccc21` [Example 104, 2-(4-((4-((cyclopropylmethyl)amino)-5-(trifluoromethyl)pyrimidin-2-yl)amino)-1H-indazol-1-yl)acetonitrile], the IC50 is under 0.05 µM.
On to `CC(C)(C#N)n1ncc2c(Nc3ncc(C(F)(F)F)c(NCC(F)(F)F)n3)cccc21` [Example 112, 2-methyl-2-(4-((4-((2,2,2-trifluoroethyl)amino)-5-(trifluoromethyl)pyrimidin-2-yl)amino)-1H-indazol-1-yl)propanenitrile], for which the IC50 is under 0.05 µM.
Take `CNc1nc(Nc2cccc3c2cnn3C(C)(C)C#N)ncc1C(F)(F)F` [Example 31, 2-methyl-2-(4-((4-(methylamino)-5-(trifluoromethyl)pyrimidin-2-yl)amino)-1H-indazol-1-yl)propanenitrile]: the IC50 is under 0.05 µM.
For `CNc1nc(Nc2ccc3cn[nH]c3c2)ncc1C(F)(F)F` [Example 1, N2-(1H-indazol-6-yl)-N4-methyl-5-(trifluoromethyl)pyrimidine-2,4-diamine], the IC50 was under 0.05 µM.
Consider `CC(C)(O)Cn1ncc2c(Nc3ncc(C(F)F)c(NC4CC4)n3)ccc(F)c21` [Example 175, 1-[4-[[4-(cyclopropylamino)-5-(difluoromethyl)pyrimidin-2-yl]amino]-7-fluoro-indazol-1-yl]-2-methyl-propan-2-ol], for which the IC50 is under 0.05 µM.
To `Cc1n[nH]c2nc(Nc3cccc4c3cnn4CC(C)(C)O)nc(NC3CC3)c12` [Example 204, 1-[4-[[4-(cyclopropylamino)-3-methyl-1H-pyrazolo[3,4-d]pyrimidin-6-yl]amino]indazol-1-yl]-2-methyl-propan-2-ol] belongs under 0.05 µM; to `CNc1nc(Nc2cnn3ccccc23)ncc1C(F)(F)F` [Example 61, N4-methyl-N2-(pyrazolo[1,5-a]pyridin-3-yl)-5-(trifluoromethyl)pyrimidine-2,4-diamine], under 0.05 µM.
`CNc1nc(Nc2ccc(OC(F)(F)F)c3c2cnn3CC#N)ncc1C(F)(F)F` [Example 84, 2-(4-((4-(methylamino)-5-(trifluoromethyl)pyrimidin-2-yl)amino)-7-(trifluoromethoxy)-1H-indazol-1-yl)acetonitrile] returned a half-maximal inhibitory concentration (IC50) of under 0.05 µM.
For the compound `C=Cc1cc2cn[nH]c2cc1Nc1ncc(C(F)(F)F)c(NC)n1` [Example 120, N^4-methyl-5-(trifluoromethyl)-N^2-(5-vinyl-1H-indazol-6-yl)pyrimidine-2,4-diamine], the IC50 was in the range of 0.05 to 0.2 µM.
`COCCn1ncc2c(Nc3ncc(C(F)(F)F)c(NC(C)C)n3)cccc21` [Example 140, N^4-isopropyl-N^2-[1-(2-methoxyethyl)indazol-4-yl]-5-(trifluoromethyl)pyrimidine-2,4-diamine] showed a half-maximal inhibitory concentration (IC50) of under 0.05 µM.
The compound `CNc1nc(Nc2cc(C(C)C)cc3c2cnn3C)ncc1C(F)(F)F` [Example 43, N2-(6-isopropyl-1-methyl-1H-indazol-4-yl)-N4-methyl-5-(trifluoromethyl) pyrimidine-2,4-diamine] yielded a half-maximal inhibitory concentration (IC50) of under 0.05 µM.

As usually defined, the IC50 is the concentration that inhibits the measured activity by half. A lower IC50 goes with greater potency in that assay.

The values above are taken from patent publication US20240174647A1 (NEURON23, INC., priority 2022, published 2024).
